Experiments:
[1] = system: pkc1Δ/PKC1 strain; assay: Differential Tag Length Analysis (DTLA) of 11-strain mixed yeast culture with inhibitor; type: cell-based, Saccharomyces cerevisiae; conditions: 20 hours, caffeine 8 mM
Method: (§1) Strains, media and inhibitors.
(§2) Tag amplification and capillary electrophoresis. Oligonucleotides Fluor-1 (6-Fam-[…]) and Pho-1 (Phosphate-[…]) were used for the amplification of tag DNAs. PCR reactions were performed in 50 μl reaction volume containing the 2 primers at a final concentration of 1 μM each and 2.5 units of Stoffel fragment AmpliTaq DNA polymerase (Applied Biosystems, Foster City, Calif.). After an initial 2 min denaturing step at 94° C., the reactions underwent 30 amplification cycles (94° C., 30 sec; 60° C., 30 sec; 72° C., 30 sec with a 6 sec increase in extension time per cycle) followed by a post-amplification extension step (72° C., 10 min). As a template for the PCR reactions, 100 ng of plasmid DNA, 700 ng of genomic DNA (extracted from yeast strains using MasterPure Yeast DNA purification kit; Epicentre, Madison, Wis.), or an equivalent to 0.5 μl of saturated culture of yeast protoplasts (prepared by using lyticase) (see, e.g., Chen et al., Biotechniques 19:744-746 (1995)) was used. The PCR products were incubated with λ-exonuclease for 1 h at 37° C. and then purified using MinElute PCR purification kit (QIAGEN Inc., Valencia, Calif.). After 1 h digestion with EcoRI, the PCR products were again purified with the same kit and adjusted to 70% formamide and 1 mM EDTA and analyzed by capillary electrophoresis on ABI Prism 3700 DNA analyzer (Applied Biosystems, Foster City, Calif.) using 3700 POP-5 polymer.
(§3) Data analysis. To access the raw fluorescence data collected by ABI Prism 3700 DNA analyzer, a Visual Basic program was used that extracted the electropherogram values and converted them into a text file format. Peak quantitation was then performed using Caesar Workstation 5.0 (SciBridge Software, Los Angeles, Calif.). In the majority of cases, the relative representation of each tag in the PCR product was calculated by dividing the area under the corresponding tag peak by the sum of all tag peak areas. For the measurement of different input amounts of tag 42, the average peak area of the other 10 tags was first calculated. The area value of tag 42 was then divided by this averaged value to give normalized tag 42 area.

[2] = system: bro1Δ/bro1Δ strain; assay: as above; type: cell-based, Saccharomyces cerevisiae; conditions: 20 hours; for increase of strain representation in the mixture: staurosporine 1 μM, latrunculin B 2 μg/ml
Method: as §1, §2, §3

[3] = system: act1Δ/ACT1 strain; assay: as above; type: cell-based, Saccharomyces cerevisiae; conditions: 20 hours
Method: as §1, §2, §3

[4] = system: rlm1Δ/rlm1Δ strain; assay: as above; type: cell-based, Saccharomyces cerevisiae; conditions: 20 hours
Method: as §1, §2, §3

[5] = system: gim4Δ/gim4Δ strain; assay: as above; type: cell-based, Saccharomyces cerevisiae
Method: as §1, §2, §3

[6] = system: pde2Δ/pde2Δ strain; assay: as above; type: cell-based, Saccharomyces cerevisiae; conditions: 20 hours
Method: as §1, §2, §3

[7] = system: pac10Δ/pac10Δ strain; type: cell-based, Saccharomyces cerevisiae; conditions: pac10Δ/pac10Δ grown individually, YPD, 30° C.; staurosporine 1 μM, caffeine 8 mM, latrunculin B 2 μg/ml
[8] = system: rlm1Δ/rlm1Δ strain; assay: Growth of individually cultured yeast strain with inhibitor (O.D.600); type: cell-based, Saccharomyces cerevisiae; conditions: rlm1Δ/rlm1Δ grown individually, YPD, 30° C.; staurosporine 1 μM, caffeine 8 mM, tunicamycin 0.4 μg/ml
[9] = system: bro1Δ/bro1Δ strain; conditions: bro1Δ/bro1Δ grown individually, YPD, 30° C.; staurosporine 1 μM, caffeine 8 mM
[10] = system: ACT1/act1Δ strain; type: cell-based, Saccharomyces cerevisiae; conditions: ACT1/act1Δ grown individually, YPD, 30° C.; staurosporine 1 μM, latrunculin B 2 μg/ml
[11] = system: pde2Δ/pde2Δ strain; assay: Growth of individually cultured yeast strain with inhibitor (O.D.600); type: cell-based, Saccharomyces cerevisiae; conditions: pde2Δ/pde2Δ grown individually, YPD, 30° C.; staurosporine 1 μM, latrunculin B 2 μg/ml
[12] = system: pdr5Δ/pdr5Δ strain; assay: Differential Tag Length Analysis (DTLA) of 11-strain mixed yeast culture with inhibitor; type: cell-based, Saccharomyces cerevisiae; conditions: pdr5Δ/pdr5Δ in mixed culture, 20 hours; latrunculin B 2 μg/ml
Method: as §1, §2, §3

[13] = system: gim4Δ/gim4Δ strain; type: cell-based, Saccharomyces cerevisiae; conditions: gim4Δ/gim4Δ grown individually, YPD, 30° C.; staurosporine 1 μM, latrunculin B 2 μg/ml
[14] = system: pdr5Δ/pdr5Δ strain; type: cell-based, Saccharomyces cerevisiae; conditions: pdr5Δ/pdr5Δ grown individually, YPD, 30° C.; staurosporine 1 μM, latrunculin B 2 μg/ml
[15] = system: pac10Δ/pac10Δ strain; type: cell-based, Saccharomyces cerevisiae; conditions: pac10Δ/pac10Δ in mixed culture, 20 hours
[16] = system: alg7Δ/ALG7 strain; type: cell-based, Saccharomyces cerevisiae; conditions: alg7Δ/ALG7 grown individually, YPD, 30° C.; staurosporine 1 μM, tunicamycin 0.4 μg/ml
[17] = system: alg7Δ/ALG7 strain; assay: Differential Tag Length Analysis (DTLA) of 11-strain mixed yeast culture with inhibitor; type: cell-based, Saccharomyces cerevisiae; conditions: alg7Δ/ALG7 in mixed culture, 20 hours; tunicamycin 0.4 μg/ml
Method: as §1, §2, §3

Cn1c(=O)c2c(ncn2C)n(C)c1=O [caffeine]
increase of strain representation in the mixture [1]: 97%
effect on growth of strain in mixed culture ([2]; caffeine 8 mM): decreased growth
effect on growth of strain in mixed culture ([3]; caffeine 8 mM): decreased growth
effect on growth of strain in mixed culture ([4]; caffeine 8 mM): decreased growth
effect on growth of strain in mixed culture ([5]; caffeine 8 mM): exhibited sensitivity in the mixture
effect on growth of strain in mixed culture ([6]; caffeine 8 mM): decreased growth
sensitivity of growth to inhibitor [7]: sensitive
sensitivity of growth to inhibitor [8]: sensitive
sensitivity of growth to inhibitor [9]: sensitive

C/C1=C/C(=O)O[C@@H]2C[C@@H](CC[C@H](C)/C=C\CC1)O[C@@](O)([C@@H]1CSC(=O)N1)C2 [latrunculin B]
sensitivity of growth to inhibitor [10]: inhibited the growth
sensitivity of growth to inhibitor [11]: inhibited the growth
strain representation compared with the non-treated culture (reduced to) [12]: less than 50%
increase of strain representation in the mixture [2]: 123%
strain representation compared with the non-treated culture (reduced to) ([3]; act1Δ/ACT1 in mixed culture, latrunculin B 2 μg/ml): less than 50%
strain representation compared with the non-treated culture (reduced to) ([5]; gim4Δ/gim4Δ in mixed culture, 20 hours, latrunculin B 2 μg/ml): less than 50%
strain representation compared with the non-treated culture (reduced to) ([6]; pde2Δ/pde2Δ in mixed culture, latrunculin B 2 μg/ml): less than 50%
sensitivity of growth to inhibitor [13]: inhibited the growth
sensitivity of growth to inhibitor [14]: inhibited the growth
sensitivity of growth to inhibitor [7]: inhibited the growth
strain representation compared with the non-treated culture (reduced to) ([15]; latrunculin B 2 μg/ml): less than 50%

CN[C@@H]1C[C@H]2O[C@@](C)([C@@H]1OC)n1c3ccccc3c3c4c(c5c6ccccc6n2c5c31)C(=O)NC4 [staurosporine]
increase of strain representation in the mixture [2]: 340%
increase of strain representation in the mixture ([6]; staurosporine 1 μM): 200%

tunicamycin
sensitivity of growth to inhibitor [16]: slowed the growth
reduction of strain relative to the non-treated culture [17]: 83%
decrease/reduction of strain relative to the non-treated culture ([4]; rlm1Δ/rlm1Δ in mixed culture, staurosporine 1 μM, tunicamycin 0.4 μg/ml): 59%
increase of strain representation in the mixture ([15]; tunicamycin 0.4 μg/ml): 82%
sensitivity of growth to inhibitor [8]: slowed the growth

Source: patent US20050009052A1 (priority 2003, published 2005)
